# From ChEMBL document CHEMBL1201862, “PubChem BioAssay data set” (2004)
# Activity calls are given as the source filed them.
# Columns and labels:
# [1] = molecular target: Cyclin-dependent kinase 5/CDK5 activator 1 (Homo sapiens, UniProt Q00535); assay: blockade of human CDK5 activity – biochemical, cherry-picked samples, set 2, dose response (AID 504545)
# SN12K1 = assay: cells; format: functional; conditions: Homo sapiens
# [2] = molecular target: SWI/SNF-related matrix-associated actin-dependent regulator of chromatin subfamily A member 2 (Homo sapiens, UniProt P51531); assay: Luminescence-based cell-based high throughput dose response assay to identify activators of the function of SWI/SNF related, matrix associated, actin dependent regulator of chromatin, subfamily a, member 2 (SMARCA2, BRM).; format: functional
# [3] = blockers of HIV-1 envelope-mediated cell-cell fusion – cherry-pick, dose response (AID 652057); format: functional, cell-based
# [4] = Counterscreen for activators of the function of SWI/SNF related, matrix associated, actin dependent regulator of chromatin, subfamily a, member 2 (SMARCA2, BRM): Luminescence-based cell-based high throughput dose response assay to identify non-selective compounds using the VP16 reporter assay.; format: functional
# [5] = viability loss in CEM21 cells – cell-based, CellTiter-Glo luminescence, cherry-picked, cytotoxicity control for viral fusion inhibitor project, dose response (AID 652042); format: functional;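 also: potency for signal decrease meaning cytotoxicity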
# [6] = blockers of HIV-1 ZM109 envelope-driven cell-cell fusion – HeLa effector, CEM target cells, luciferase, cherry-pick, dose response (AID 652058); format: functional, cell-based;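 also: luciferase signal from HIV-1 Env mediated cell-cell fusion of effector and target cells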
# [7] = off-target signal loss in HeLa-CEM21 co-culture – HeLa F-luc CTL cells, cherry-picked, counter-screen for HIV-1 Env fusion inhibitor project, dose response (AID 652040); format: functional, cell-based;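 also: potency for signal decrease marking cytotoxic or nonspecific inhibition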
# [8] = HIV-1 AD8 envelope cell-cell fusion blockers – cherry-pick, dose response (AID 652062); format: functional, cell-based;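 also: luciferase signal from cell-cell fusion driven by HIV-1 clade B AD8 Env; potency is for inhibitors of fusion seen as a drop in luminescence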
# Protein Rev = Protein Rev (Human immunodeficiency virus type 1 group M subtype B (isolate HXB2)(HIV-1), UniProt P04618); assay: blockers of HIV Rev/RRE RNA complex – biochemical, fluorescence polarization, HIV-1, dose response (AID 434976); parameters: species or system Human immunodeficiency virus 1
# [9] = molecular target: Female germline-specific tumor suppressor gld-1 (Caenorhabditis elegans, UniProt Q17339); assay: blockers of GLD-1/TGE RNA complex formation – biochemical, fluorescence polarization, C. elegans, dose response (AID 2802);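 also: fluorescence polarization of labeled TGE RNA bound by purified gld-1 protein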
# X-box-binding protein 1 = X-box-binding protein 1 (Homo sapiens, UniProt P17861); format: functional, Cricetulus griseus;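 also: confirmatory dose-response counter-screen serving a CHOP assay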
# SUMO-activating enzyme [10] = molecular target: T1, SUMO-activating enzyme (Homo sapiens, UniProt Q9UBT2); assay: blockers of UBC9-mediated SUMO conjugation – biochemical, AlphaScreen, SUMOylation inhibitor project, confirmation (AID 2018); format: functional
# SUMO-activating enzyme [11] = molecular target: T1, SUMO-activating enzyme; assay: blockers of SAE1/SAE2–UBC9 SUMO transfer – biochemical, HTRF, uHTS, primary screen (AID 2006); format: protein-complex assay
# [12] = molecular target: Eukaryotic translation initiation factor 4E (Mus musculus, UniProt P63073); assay: blockers of eIF4G binding by eIF4E – biochemical, TR-FRET, dose response (AID 855); format: functional;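 also: potency for disrupting eIF4E binding to eIF4GI seen as loss of FRET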
# [13] = molecular target: Long-chain-fatty-acid--AMP ligase FadD28 (Mycobacterium tuberculosis, UniProt P9WQ59); assay: Fluorescence polarization aasay to screen for inhibitors that compete for the binding of FadD28 to a bisubstrate Measured in Biochemical System Using Plate Reader - 2147-01_Inhibitor_Dose_CherryPick_Activity.; format: functional, Mycobacterium tuberculosis H37Rv
# Chain of Long-chain-fatty-acid--AMP ligase FadD28 (P9WQ59 whole entry): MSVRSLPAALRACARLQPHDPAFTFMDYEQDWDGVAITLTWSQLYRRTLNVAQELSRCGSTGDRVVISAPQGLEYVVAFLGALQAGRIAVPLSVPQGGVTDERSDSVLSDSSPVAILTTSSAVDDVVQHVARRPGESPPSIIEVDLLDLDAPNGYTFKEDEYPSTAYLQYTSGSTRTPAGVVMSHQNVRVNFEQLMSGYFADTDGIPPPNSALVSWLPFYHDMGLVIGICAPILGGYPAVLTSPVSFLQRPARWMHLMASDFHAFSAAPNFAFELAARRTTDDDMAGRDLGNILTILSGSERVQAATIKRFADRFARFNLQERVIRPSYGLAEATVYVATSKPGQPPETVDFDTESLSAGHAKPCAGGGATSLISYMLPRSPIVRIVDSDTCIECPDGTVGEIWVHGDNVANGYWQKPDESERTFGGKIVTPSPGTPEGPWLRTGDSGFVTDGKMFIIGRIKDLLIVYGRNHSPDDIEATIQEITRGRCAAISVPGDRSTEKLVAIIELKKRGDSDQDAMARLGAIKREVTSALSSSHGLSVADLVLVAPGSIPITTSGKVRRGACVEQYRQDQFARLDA
# T1 sequence (Q9UBE0 whole entry): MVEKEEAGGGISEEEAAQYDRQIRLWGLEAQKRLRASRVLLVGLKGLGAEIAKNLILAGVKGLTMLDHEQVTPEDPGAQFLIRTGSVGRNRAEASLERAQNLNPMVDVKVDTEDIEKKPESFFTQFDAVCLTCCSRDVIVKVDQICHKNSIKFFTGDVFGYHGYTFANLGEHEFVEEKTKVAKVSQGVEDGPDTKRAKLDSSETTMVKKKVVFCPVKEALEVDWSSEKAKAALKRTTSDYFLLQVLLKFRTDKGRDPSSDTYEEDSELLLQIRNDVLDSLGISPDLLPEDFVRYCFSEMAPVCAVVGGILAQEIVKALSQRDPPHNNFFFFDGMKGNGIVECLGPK
# T1 sequence (Q9UBT2 whole entry): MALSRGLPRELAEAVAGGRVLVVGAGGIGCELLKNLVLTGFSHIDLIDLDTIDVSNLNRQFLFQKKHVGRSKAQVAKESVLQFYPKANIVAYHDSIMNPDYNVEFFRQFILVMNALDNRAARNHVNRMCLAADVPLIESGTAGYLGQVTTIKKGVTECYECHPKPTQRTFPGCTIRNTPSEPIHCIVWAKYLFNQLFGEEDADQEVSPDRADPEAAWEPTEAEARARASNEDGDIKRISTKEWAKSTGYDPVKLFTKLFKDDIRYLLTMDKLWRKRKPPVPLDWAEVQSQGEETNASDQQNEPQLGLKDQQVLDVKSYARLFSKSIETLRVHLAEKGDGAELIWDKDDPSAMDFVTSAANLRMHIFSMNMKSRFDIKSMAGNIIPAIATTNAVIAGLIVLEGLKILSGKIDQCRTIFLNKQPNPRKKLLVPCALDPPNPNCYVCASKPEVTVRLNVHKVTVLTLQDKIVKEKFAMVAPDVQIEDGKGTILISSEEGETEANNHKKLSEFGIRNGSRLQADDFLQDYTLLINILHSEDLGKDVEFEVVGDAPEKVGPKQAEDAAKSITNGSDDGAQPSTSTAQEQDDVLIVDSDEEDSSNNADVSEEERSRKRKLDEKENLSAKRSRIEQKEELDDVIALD
# Chain of Cyclin-dependent kinase 5/CDK5 activator 1 (Q00535 whole entry): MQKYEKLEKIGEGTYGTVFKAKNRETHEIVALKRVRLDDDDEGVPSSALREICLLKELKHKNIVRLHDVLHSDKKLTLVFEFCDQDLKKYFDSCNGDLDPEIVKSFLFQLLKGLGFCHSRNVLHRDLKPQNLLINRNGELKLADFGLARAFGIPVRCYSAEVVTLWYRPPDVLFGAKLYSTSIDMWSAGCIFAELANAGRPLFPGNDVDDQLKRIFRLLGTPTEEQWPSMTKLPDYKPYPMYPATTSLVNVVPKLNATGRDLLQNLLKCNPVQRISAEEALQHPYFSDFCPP
# Chain of Cyclin-dependent kinase 5/CDK5 activator 1 (Q15078 whole entry, further chain): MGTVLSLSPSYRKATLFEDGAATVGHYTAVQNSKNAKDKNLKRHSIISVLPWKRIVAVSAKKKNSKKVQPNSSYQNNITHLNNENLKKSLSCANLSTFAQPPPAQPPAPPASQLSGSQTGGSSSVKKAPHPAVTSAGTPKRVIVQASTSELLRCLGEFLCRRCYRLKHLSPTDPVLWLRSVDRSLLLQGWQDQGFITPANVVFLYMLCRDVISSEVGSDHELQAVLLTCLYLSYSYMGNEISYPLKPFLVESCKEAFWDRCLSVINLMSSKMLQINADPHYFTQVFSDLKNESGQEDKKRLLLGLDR
# Chain of Eukaryotic translation initiation factor 4E (P63073 whole entry): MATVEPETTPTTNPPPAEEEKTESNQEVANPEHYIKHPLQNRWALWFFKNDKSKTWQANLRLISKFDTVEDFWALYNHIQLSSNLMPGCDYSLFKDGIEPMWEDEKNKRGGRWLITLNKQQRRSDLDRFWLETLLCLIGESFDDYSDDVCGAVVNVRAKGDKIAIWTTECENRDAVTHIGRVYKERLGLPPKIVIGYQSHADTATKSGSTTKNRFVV
# Chain of Protein Rev (P04618 whole entry): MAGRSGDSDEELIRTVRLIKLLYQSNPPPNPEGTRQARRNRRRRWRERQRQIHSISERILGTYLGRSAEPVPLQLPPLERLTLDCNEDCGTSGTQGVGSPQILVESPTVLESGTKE
# Chain of SWI/SNF-related matrix-associated actin-dependent regulator of chromatin subfamily A member 2 (P51531 whole entry, the tested form may be a part): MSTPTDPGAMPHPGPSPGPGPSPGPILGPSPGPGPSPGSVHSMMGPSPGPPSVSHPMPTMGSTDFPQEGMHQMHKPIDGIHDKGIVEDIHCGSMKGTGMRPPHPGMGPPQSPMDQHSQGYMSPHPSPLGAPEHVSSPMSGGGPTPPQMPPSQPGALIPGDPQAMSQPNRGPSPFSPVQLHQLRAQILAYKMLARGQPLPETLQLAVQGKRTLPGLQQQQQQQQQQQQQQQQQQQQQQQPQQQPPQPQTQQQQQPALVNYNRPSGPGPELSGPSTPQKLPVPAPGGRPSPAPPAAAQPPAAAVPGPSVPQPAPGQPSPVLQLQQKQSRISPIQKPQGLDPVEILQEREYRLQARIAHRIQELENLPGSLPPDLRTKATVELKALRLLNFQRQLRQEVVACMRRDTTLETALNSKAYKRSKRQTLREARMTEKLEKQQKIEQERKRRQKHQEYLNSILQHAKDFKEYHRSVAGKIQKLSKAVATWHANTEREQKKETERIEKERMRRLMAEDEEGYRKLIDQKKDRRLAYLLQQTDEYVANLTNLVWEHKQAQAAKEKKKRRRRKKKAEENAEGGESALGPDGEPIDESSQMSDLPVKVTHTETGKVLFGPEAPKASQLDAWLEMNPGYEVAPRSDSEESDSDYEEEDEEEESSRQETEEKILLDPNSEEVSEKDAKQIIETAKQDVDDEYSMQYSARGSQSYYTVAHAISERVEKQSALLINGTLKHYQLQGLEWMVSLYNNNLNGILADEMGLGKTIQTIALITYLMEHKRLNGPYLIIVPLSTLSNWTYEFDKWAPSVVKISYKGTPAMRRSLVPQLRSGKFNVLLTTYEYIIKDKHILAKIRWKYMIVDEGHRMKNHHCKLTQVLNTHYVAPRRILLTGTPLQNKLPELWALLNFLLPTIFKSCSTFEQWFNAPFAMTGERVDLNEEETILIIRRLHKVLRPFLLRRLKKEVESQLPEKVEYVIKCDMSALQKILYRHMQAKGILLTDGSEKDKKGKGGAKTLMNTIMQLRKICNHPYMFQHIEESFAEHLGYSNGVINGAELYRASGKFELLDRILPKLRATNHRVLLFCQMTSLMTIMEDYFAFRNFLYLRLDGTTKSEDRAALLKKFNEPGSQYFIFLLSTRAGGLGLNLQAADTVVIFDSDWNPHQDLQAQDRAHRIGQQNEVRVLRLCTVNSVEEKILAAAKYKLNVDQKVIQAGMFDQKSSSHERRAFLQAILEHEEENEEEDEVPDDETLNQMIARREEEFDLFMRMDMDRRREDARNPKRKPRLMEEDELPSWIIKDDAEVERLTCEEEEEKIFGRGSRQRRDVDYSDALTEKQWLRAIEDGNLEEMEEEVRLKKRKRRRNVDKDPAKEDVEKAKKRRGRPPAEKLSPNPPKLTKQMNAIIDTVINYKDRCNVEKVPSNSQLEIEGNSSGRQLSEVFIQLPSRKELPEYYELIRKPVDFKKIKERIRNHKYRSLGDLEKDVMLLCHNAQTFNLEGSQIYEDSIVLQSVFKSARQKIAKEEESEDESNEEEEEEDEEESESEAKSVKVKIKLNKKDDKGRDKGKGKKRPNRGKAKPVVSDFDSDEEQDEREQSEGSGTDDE
# Chain of X-box-binding protein 1 (P17861 whole entry): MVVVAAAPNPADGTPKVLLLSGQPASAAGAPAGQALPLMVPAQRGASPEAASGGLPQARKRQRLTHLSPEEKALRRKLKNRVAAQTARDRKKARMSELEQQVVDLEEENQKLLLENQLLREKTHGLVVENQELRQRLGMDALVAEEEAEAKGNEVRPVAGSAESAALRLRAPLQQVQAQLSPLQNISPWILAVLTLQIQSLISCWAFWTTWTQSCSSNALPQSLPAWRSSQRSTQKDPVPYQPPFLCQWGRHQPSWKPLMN
# Chain of Female germline-specific tumor suppressor gld-1 (Q17339 whole entry): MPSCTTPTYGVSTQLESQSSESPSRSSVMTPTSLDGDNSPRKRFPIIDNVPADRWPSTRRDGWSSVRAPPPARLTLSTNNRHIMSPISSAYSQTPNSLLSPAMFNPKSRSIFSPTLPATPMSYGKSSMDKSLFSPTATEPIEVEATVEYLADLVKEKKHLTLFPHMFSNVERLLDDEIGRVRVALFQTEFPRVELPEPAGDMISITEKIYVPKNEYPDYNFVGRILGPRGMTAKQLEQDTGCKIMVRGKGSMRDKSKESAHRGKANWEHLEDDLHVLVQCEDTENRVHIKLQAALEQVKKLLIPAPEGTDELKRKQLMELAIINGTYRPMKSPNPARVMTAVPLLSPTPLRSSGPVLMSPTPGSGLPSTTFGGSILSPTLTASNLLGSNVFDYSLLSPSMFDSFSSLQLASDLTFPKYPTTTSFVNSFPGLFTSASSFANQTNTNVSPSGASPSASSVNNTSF
smiles,measurement,setting,value
N#Cc1cn(C2OC(CO)C(O)C2O)c2ncnc(N)c12 (stereo unspecified),AC50,[1],5.59 µM (active)
same,GI50,SN12K1,0.0425 µM (active)
same,EC50,[2],> 91.2 µM (inactive)
same,AC50,[3],< 0.26 µM (active)
same,EC50,[4],> 91.2 µM (inactive)
same,AC50,[5],< 0.26 µM (active)
same,AC50,[6],< 0.26 µM (active)
same,AC50,[7],1.39 µM (active)
same,AC50,[8],0.621 µM (active)
Nc1c(-c2cccc([N+](=O)[O-])c2)nc2ccccn12,IC50,Protein Rev,> 75.5 µM (not active)
same,IC50,[9],7.64 µM (active)
CC(C)(C)c1ccc(NC(=O)Nc2ccc(F)cc2)cc1,Absolute IC50 (XBP1),X-box-binding protein 1,10 µM
Cc1ccc(NC(=O)CN2C(=O)S/C(=C/c3ccc(O)c([N+](=O)[O-])c3)C2=O)cc1C,IC50,SUMO-activating enzyme [10],5.08 µM (active)
same,IC50,SUMO-activating enzyme [11],20.9 µM (active)
same,IC50,[12],50 µM (inactive)
same,AC50,[13],7.6 µM (active)
